Laboratory results reported in PMC7248705, “A Pharmacokinetic and Pharmacodynamic Evaluation of the Anti-Hepatocellular Carcinoma Compound 4-N-Carbobenzoxy-gemcitabine (Cbz-dFdC)” (Molecules, 2020).
“Also recorded” adds a separate entry of the source.

Tests used:
[1] = Enzymatic kinetics in vitro, rat kidney homogenate; type: in vitro ADME; conditions: 37 °C, 30 min, 5–200 μM Cbz-dFdC
Procedure: (§1) The SD rats without any treatment were sacrificed after adapting to the environment. Blank blood, the liver, the kidney, and the intestine were collected and treated as described in Section 4.4. Part of the homogenate was removed for centrifugation for 20 min at 9000× g at 4 °C, and the supernatant was obtained as tissue S9. The tissue homogenate and S9 were diluted to […] after the protein concentration was determined by the BCA kit (Abcam, Cambridge, MA, USA). Each matrix consisted of 45 uL of the matrix mixed with 5 uL of the drug dissolved in normal saline solution for about 3 min, followed by incubation at 37 °C in a water bath. Then, acetonitrile containing the internal standard was added to terminate the reaction. Human tissue S9 and human CES1 recombinase purchased from the Ruid Liver Disease Research Co., Ltd. (Shanghai, China) were incubated under the same conditions. An enzyme kinetic study was obtained from the matrix following incubation at 37 °C for 30 min with 5, 10, 20, 50, 100, or 200 μM of Cbz-dFdC. We estimated the parameters and simulated curves according to the Eadie–Hofstee method.

HepG2 cells = test: Cell uptake in HepG2 cells; type: cell-based, human
Procedure: (§2) The cells were cultured on a 96-well plate for 4 h for each well. Then, dimethyl sulfoxide solution containing 0.1–100 mM of Cbz-dFdC and dFdC was diluted 1000 times with the medium before administration. A total of 200 uL of medium containing Cbz-dFdC and dFdC was added per well (n = 6). The medium with drugs was discarded, and 10% CCK-8 solution was added. Then, the absorbance value was read at a wavelength of 450 nm after incubation at 37 °C, for 30 min. The drug concentration of Cbz-dFdC and dFdC in cell were determined by a previously established method.

CES1 = molecular target: T1, CES1 (Homo sapiens, UniProt P23141); test: Enzymatic kinetics in vitro, human CES1 recombinase; type: in vitro ADME; conditions: recombinant human CES1, 37 °C, 30 min, 5–200 μM Cbz-dFdC, read-out: Clint, disappearance of Cbz-dFdC
T1 construct: purchased Ruid Liver Disease Research Co., Ltd. (Shanghai, China)
T1 sequence (P23141 18-567): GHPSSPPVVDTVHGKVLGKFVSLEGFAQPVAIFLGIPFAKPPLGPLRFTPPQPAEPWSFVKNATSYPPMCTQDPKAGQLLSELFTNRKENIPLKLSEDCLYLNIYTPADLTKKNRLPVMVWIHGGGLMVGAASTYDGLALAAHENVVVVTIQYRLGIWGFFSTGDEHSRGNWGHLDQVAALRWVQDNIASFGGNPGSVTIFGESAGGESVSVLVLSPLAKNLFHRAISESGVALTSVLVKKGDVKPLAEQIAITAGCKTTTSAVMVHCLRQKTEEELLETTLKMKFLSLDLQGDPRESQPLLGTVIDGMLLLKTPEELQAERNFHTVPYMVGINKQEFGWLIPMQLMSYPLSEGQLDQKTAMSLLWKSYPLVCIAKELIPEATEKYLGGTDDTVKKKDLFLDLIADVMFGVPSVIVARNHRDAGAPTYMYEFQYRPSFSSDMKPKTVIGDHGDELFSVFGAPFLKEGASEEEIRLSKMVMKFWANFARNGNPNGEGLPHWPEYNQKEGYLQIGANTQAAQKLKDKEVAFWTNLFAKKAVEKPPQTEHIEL
Procedure: as §1

[2] = Tissue distribution (liver, kidney, intestine); type: in vivo, SD rats; conditions: rats
Procedure: In order to investigate the drug distribution in different tissues and the relationship between CES1 activity and tissue concentration, we conducted tissue distribution experiments. The SD rats were divided into six groups (n = 6 for each group). After a single intragastric administration of Cbz-dFdC (22 mg/kg) and a single injected administration of dFdC (15 mg/kg), the SD rats were sacrificed at 0.5 h, 1.5 h, and 4 h, and the liver, kidney, and intestine were collected. The liver was perfused with ice-cold normal saline and then removed, followed by ice-cold normal saline cleaning. The kidney and intestine were directly removed and then washed with ice-cold normal saline. All of the above operations were carried out on ice, and the removed tissue was stored in an ice bath. The liver, kidney, and intestine were cut and crushed, homogenized with an appropriate amount of phosphate buffer by a homogenizer, and then diluted 5 times with ice-cold PBS buffer (in an ice bath). The tissue homogenates were determined with a BCA kit for protein concentration, a CES1 kit for CES1 activity, and UFLC–MS/MS for drug tissue concentration after pretreatment; the pretreatment method was reported previously.

[3] = Enzymatic kinetics in vitro, rat kidney S9; type: in vitro ADME; conditions: 37 °C, 5–200 μM Cbz-dFdC
Procedure: as §1

[4] = Enzymatic kinetics in vitro, rat blood; type: in vitro ADME; conditions: 37 °C, 30 min, 5–200 μM Cbz-dFdC
Procedure: as §1

[5] = Incubation in human plasma and S9 of the kidney and intestine; type: in vitro ADME
Procedure: as §1

[6] = Enzymatic kinetics in vitro, rat liver S9; type: in vitro ADME; conditions: 37 °C, 5–200 μM Cbz-dFdC
Procedure: as §1

[7] = Enzymatic kinetics in vitro, rat plasma; type: in vitro ADME; conditions: 37 °C, 30 min, 5–200 μM Cbz-dFdC
Procedure: as §1

[8] = Incubation in rat intestine homogenate and S9; type: in vitro ADME
Procedure: as §1

human HepG2 cell line = test: CCK-8 tumor cell growth inhibition assay; type: cell-based; conditions: HepG2, CCK-8, concentration-dependent
Procedure: as §2

[9] = Enzymatic kinetics in vitro, rat liver homogenate; type: in vitro ADME; conditions: 37 °C, 30 min, 5–200 μM Cbz-dFdC
Procedure: as §1

[10] = read-out: Km, appearance of dFdC
[11] = read-out: Km, disappearance of Cbz-dFdC
[12] = SD, read-out: Clint, disappearance of Cbz-dFdC
[13] = SD, read-out: Km, disappearance of Cbz-dFdC
[14] = SD, 30 min, read-out: Clint, disappearance of Cbz-dFdC

Question: Which results are given for `O=C(Nc1ccn([C@@H]2O[C@H](CO)[C@@H](O)C2(F)F)c(=O)n1)OCc1ccccc1` [Cbz-dFdC, 4-N-carbobenzoxy-gemcitabine]?
Answer: Vmax, appearance of dFdC [1]: 44.3 nmol/min/mg pro; Vmax, disappearance of Cbz-dFdC [1]: 162.7 nmol/min/mg pro; Km [1, 10]: 48.9 µM; Km [1, 11]: 148 µM; microsomal CLint [1, 12]: 1100 µL/min/mg; intracellular concentration (cell uptake) (HepG2 cells): low; microsomal CLint (CES1): 72700 µL/min/mg; Cbz-dFdC level in the intestine versus other tissues ([2]; after i.g. Cbz-dFdC 22 mg/kg, liver, kidney, intestine, especially at 0.5 h): significantly higher than that in the other tissues; also recorded: mainly distributed in the intestine; tissue penetration ([2]; drug concentration in tissue lower than plasma concentration): weak tissue penetration; Vmax, appearance of dFdC ([3]; 30 min): 50.2 nmol/min/mg pro; Vmax, disappearance of Cbz-dFdC ([3]; 30 min): 206.5 nmol/min/mg pro; Km at 30 min [3, 13]: 269 µM; microsomal CLint [3, 14]: 770 µL/min/mg; Vmax, appearance of dFdC [4]: 178.5 nmol/min/mg pro; Vmax, disappearance of Cbz-dFdC [4]: 341.1 nmol/min/mg pro; Km [4, 10]: 73.2 µM; Km [4, 11]: 69.8 µM; microsomal CLint [4, 12]: 4890 µL/min/mg; stability towards CES2 in humans ([5]; concluded from tissue-specific CES expression, humans): relatively stable in CES2; degradation in human plasma and S9 of the kidney and intestine ([5]; human plasma, kidney S9, intestine S9): did not degrade; Vmax, appearance of dFdC ([6]; 30 min): 49.5 nmol/min/mg pro; Vmax, disappearance of Cbz-dFdC ([6]; 30 min): 169.6 nmol/min/mg pro; Km at 30 min [6, 13]: 96.3 µM; microsomal CLint [6, 14]: 1760 µL/min/mg; Vmax, appearance of dFdC [7]: 230.4 nmol/min/mg pro; Vmax, disappearance of Cbz-dFdC [7]: 486.2 nmol/min/mg pro; Km [7, 10]: 101 µM; Km [7, 11]: 90.3 µM; microsomal CLint [7, 12]: 5380 µL/min/mg; stability towards CES2 in rats ([8]; concluded from tissue-specific CES expression, rats): relatively stable in CES2; degradation in rat intestine homogenate and S9 ([8]; rat intestine homogenate and S9, dFdC not generated): essentially non-degradable; cytotoxicity / tumor cell growth inhibition (human HepG2 cell line): certain cytotoxicity; also recorded: lower than that of an equimolar dose of dFdC; Vmax, appearance of dFdC [9]: 86.8 nmol/min/mg pro; Vmax, disappearance of Cbz-dFdC [9]: 411.6 nmol/min/mg pro; Km [9, 10]: 96.4 µM; Km [9, 11]: 190 µM; microsomal CLint [9, 12]: 2170 µL/min/mg
